Experimental data from patent US20130316006A1, “PARTICLES, COMPOSITIONS AND METHODS FOR OPHTHALMIC AND/OR OTHER APPLICATIONS” (Kala Pharmaceuticals, Inc., priority 2012, published 2013).
Each block holds one compound with its values, some of them ahead of it.

What was measured:
[1] = Chemical stability of LE formulations to 25 kGy gamma irradiation (degradant concentrations); format: physicochemical
Procedure: Gamma irradiation of a formulation can cause chemical degradation and free radical generation and is a concern especially in aqueous formulations. LE is a soft steroid designed to metabolize via the hydrolytic or enzymatic cleavage of two ester bonds into PJ-91 and PJ-90. […] The concentrations of the degradants were measured immediately after being subjected to gamma irradiation (“Gamma irradiated initial”) and 4 weeks after being subjected to gamma irradiation (“gamma irradiated after 4 weeks”) using a Cobalt 60 gamma irradiation source at a dose of 25 kGy. […] [table]

physchem = conditions: 25 °C, water
VEGF = assay: Rabbit VEGF-challenge model, leakage by fluorescein angiography; format: in vivo, Dutch belted rabbits; conditions: axitinib-MPP 5%, 50 μL every 4 hours days 1-6; Avastin one intravitreal injection day 1; VEGF day 3; angiography day 6
Text: On day 3, the rabbits received an intravitreal injection of VEGF. On day 6, the rabbits were accessed for leakage via fluorescein angiography.
In this model, Dutch belted rabbits were given an intravitreal injection of VEGF to stimulate vascular growth. Fluorescein angiography was used to determine the degree to which the rabbits developed abnormal vascular and leakage.

Amount of tetradeca when LE is gamma-irradiated [1]: above 1%
Compound: CCOC(=O)O[C@]1(C(=O)OCCl)CC[C@H]2[C@@H]3CCC4=CC(=O)C=C[C@]4(C)[C@H]3[C@@H](O)C[C@@]21C [LE, loteprednol etabonate]

solubility (physchem): ~150 µg/mL
Compound: Nc1c(CC(=O)O)cccc1C(=O)c1ccc(Br)cc1 [bromfenac calcium]

Compound: Avastin®: bevacizumab; positive control, one intravitreal injection
Vessel growth and vascular leakage after intravitreal VEGF (VEGF): no change in retinal vasculature
